Values of other authors, collected in US20090137457A1, “Pyrimidinedione derivatives” (CoNCERT Pharmaceuticals, Inc., priority 2007, published 2009).

Conditions: Phase I and II clinical trials; Christopher R et al., ADA 2007 (Abs 0495-P)

For `Cn1c(=O)cc(N2CCC[C@@H](N)C2)n(Cc2ccccc2C#N)c1=O` [Alogliptin], the “tolerability in clinical trials” value is given as “generally well tolerated”.
